Experiments:
[1] = tested on: cellular calpains in C2C12 myoblasts; experiment: Calpain Inhibition Assay in C2C12 Myoblasts; assay type: cell-based; settings: read-out: Calp I IC50 Myoblast
Method: This assay is aimed at monitoring the ability of the substance to inhibit cellular calpains. C2C12 myoblasts are grown in 96-well plates in growth medium (DMEM, 20% foetal calf serum) until they reach confluency. The growth medium is then replaced by fusion medium (DMEM, 5% horse serum). 24 hours later the fusion medium is replaced by fusion medium containing the test substances dissolved in 1 μl DMSO. After 2 hours of incubation at 37° C. the cells are loaded with the calpain fluorogenic substrate Suc-Leu-Tyr-AMC at 400 μM in 50 μl of a reaction buffer containing 135 mM NaCl; 5 mM KCl; 4 mM CaCl2; 1 mM MgCl2; 10 mM Glucose; 10 mM HEPES pH 7.25 for 20 min at room temperature. The calcium influx, necessary to activate the cellular calpains, is evoked by the addition of 50 μl reaction buffer containing 20 μM of the calcium ionophore Br-A-23187 (Molecular Probes). The fluorescence of the cleavage product AMC is measured as described above during 60 min at 37° C. at intervals of 1 min. The IC50 values are determined as described above. Comparison of the IC50 determined in the enzymatic calpain inhibition assay to the IC50 determined in the C2C12 myoblasts calpain inhibition assay, allows to evaluate the cellular uptake or the membrane permeability of the substance.

mdx mouse = experiment: Longterm treatment of mdx mice (muscle histology); assay type: in vivo; settings: for adverse effects upon longterm treatment: longterm treatment every 2nd day i.p.
Method: The mdx mouse is a well established animal model for Duchenne Muscular Dystrophy (Bulfield G., Siller W. G., Wight P. A., Moore K. J., X chromosome-linked muscular dystrophy (mdx) in the mouse, Proc. Natl. Acad. Sci. USA., 1984, 81(4), 1189-1192). Selected compounds were tested in longterm treatments of mdx mice, according to the procedures described below.
Mouse strains: C57BL/10scsn and C57BL/10scsn mdx mouse strains were purchased at The Jackson Laboratory (ME, USA) and bred inhouse. Mouse males were sacrificed at the age of 3 or 7 weeks by CO2 asphyxiation.
Treatment: Compounds were dissolved in 50% PEG, 50% saline solution and applied by i.p. injection.
Histology: Tibialis anterior (TA), quadriceps (Quad), and diaphragm (Dia) muscles were collected and mounted on cork supports using gum tragacanth (Sigma-Aldrich, Germany). The samples were snap-frozen in melting isopentane and stored at −80° C. 12 μm thick cryosections of the mid-belly region of muscles were prepared. For staining, sections were air dried and fixed with 4% PFA in PBS for 5 minutes, washed 3 times with PBS and incubated over night at 4° C. in PBS containing 2 μg/ml Alexa Fluor ™ 488 conjugated wheat-germ agglutinin (WGA-Alexa, Molecular Probes, Eugene, Oreg., USA) to stain membrane-bound and extracellular epitopes and 1 μg/ml 4′,6-diamidino-2-phenylindole (DAPI; Molecular Probes) to stain nuclei.
Image acquisition and analysis: Fluorescence microscopy images of both labels were acquired using a digital camera (ColorView II, Soft Imaging System, Münster, Germany) coupled to a fluorescence microscope (Vanox S, Olympus, Tokyo, Japan). Combination of these two stainings to a composite image, assembling of several images to a complete image of the entire muscle cross-section and further semi-automated analysis was performed using the image analysis program AnalySIS (Soft Imaging System). Image analysis of 1200-2900 muscle fibers in each section was performed in three steps: 1) determination of the muscle fiber boundaries, 2) determination of the muscle fiber size, and 3) determination of the percentage of muscle fibers containing centralized nuclei. Six different geometrical parameters were tested for the determination of the muscle fiber size: (a) the “minimal feret” (the minimum distance of parallel tangents at opposing borders of the muscle fiber), (b) the “area”, (c) the “minimal inner diameter” (the minimum diameter through the center of the muscle fiber), (d) the “minimal diameter” (the minimum diameter of a muscle fiber for angles in the range 0° through 179° with step width 1°, (e) the “minimal outer diameter” (the minimum diameter through the muscle fiber from outer border to outer border), and (f) the “perimeter”. The variance coefficient of the muscle fiber size is defined as follows: variance coefficient=(standard deviation of the muscle fiber size/mean of the muscle fiber size of the section)*[…]. For statistical analysis of different variance coefficient values Mann-Whitney U test was used.

20S Proteasome = biological target: T1, 20S Proteasome (Oryctolagus cuniculus, UniProt G1T4Q9); experiment: 20S Proteasome Assay; assay type: biochemical; settings: Rabbit, read-out: 20S Prot IC50
T1 sequence (G1T4Q9 1-263): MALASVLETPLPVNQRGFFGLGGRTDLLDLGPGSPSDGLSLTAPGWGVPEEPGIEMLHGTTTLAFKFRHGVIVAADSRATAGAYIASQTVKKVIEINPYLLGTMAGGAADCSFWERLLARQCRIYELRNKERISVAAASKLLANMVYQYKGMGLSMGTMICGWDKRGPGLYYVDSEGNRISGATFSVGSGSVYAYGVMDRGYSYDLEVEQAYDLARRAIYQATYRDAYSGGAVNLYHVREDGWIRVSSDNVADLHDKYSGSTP
Method: 25 μl of a reaction buffer containing 400 μM of the fluorogenic substrate Suc-Leu-Leu-Val-Tyr-AMC (Bachem) are dispensed per well of a white microtiter plate. Test compounds dissolved in 0.5 μl DMSO are added. To start the reaction; 25 μl of reaction buffer containing 35 ng of enzyme (20S Proteasome, Rabbit, Calbiochem) are added. The increase in fluorescence (excitation at 360 nm; emission at 440 nm) is measured over 30 min at 30° C. at 30″. The IC50's are then determined from the slopes.

[2] = 20 mg/kg every 2nd day i.p., 3 week old mice, 4 weeks treatment, diaphragm, vs vehicle mdx controls

Structure (SMILES) | IC50 [1] [nM] | decrease in the variance coefficient of the muscle fiber size in the Dia (mdx mouse; [2]) [%] | adverse effects upon longterm treatment (mdx mouse) | IC50 (20S Proteasome) [nM] | decrease in the variance coefficient of the muscle fiber size in the Dia (mdx mouse; 2 mg/kg every 2nd day i.p., diaphragm, vs vehicle mdx controls) [%] | reduction of the percentage of centralized nuclei in the Dia (mdx mouse; 20 mg/kg every 2nd day i.p., diaphragm, vs vehicle mdx controls) [%] | decrease in the variance coefficient of the muscle fiber size in the Quad (mdx mouse; 20 mg/kg every 2nd day i.p., quadriceps, vs vehicle mdx controls) [%]
CCNC(=O)C(=O)[C@H](Cc1ccc(Cl)cc1)NC(=O)[C@@H](NC(=O)[C@H](Cc1ccccc1)NC(=O)CCCCC1CCS[S+]1[O-])C(C)C (some centres unmarked) [Example 2] | 210 | 26 | No prominent adverse effects | 160 |  |  | 
CCNC(=O)C(=O)C(Cc1ccc(OC)cc1)NC(=O)C(CC(C)C)NC(=O)C(Cc1cccc2ccccc12)NC(=O)CCCCC1CCSS1 (centres unmarked) [Example 637] | 40 | 34 | No prominent adverse effects | 40 | 33 | 34 | 32

Source: patent US20070293486A1, “Alpha-Keto Carbonyl Calpain Inhibitors” (SANTHERA PHARMACEUTICALS (SCHWEIZ) AG, priority 2004, published 2007)
